Where two headings read alike, the source gives them in different places.
Experiments:
[1] = target: orexin-1 (Homo sapiens (Human), UniProt O43613); assay: Intracellular calcium measurement (FLIPR), CHO cells expressing human orexin-1 receptor, 3 nM orexin-A; type: cell-based; conditions: read-out: IC50 OX1
How it was run: (§1)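 Antagonist is added 120 min before agonist. Fluo-4 AM-loaded CHO cells carry human orexin-1 or orexin-2 receptor, and calcium is read by FLIPR.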

[2] = target: human orexin-2 receptor (Homo sapiens (Human), UniProt O43614); assay: Intracellular calcium measurement (FLIPR), CHO cells expressing human orexin-2 receptor, 3 nM orexin-A; type: cell-based; conditions: read-out: IC50 OX2
Chain of human orexin-2 receptor (O43614 whole entry): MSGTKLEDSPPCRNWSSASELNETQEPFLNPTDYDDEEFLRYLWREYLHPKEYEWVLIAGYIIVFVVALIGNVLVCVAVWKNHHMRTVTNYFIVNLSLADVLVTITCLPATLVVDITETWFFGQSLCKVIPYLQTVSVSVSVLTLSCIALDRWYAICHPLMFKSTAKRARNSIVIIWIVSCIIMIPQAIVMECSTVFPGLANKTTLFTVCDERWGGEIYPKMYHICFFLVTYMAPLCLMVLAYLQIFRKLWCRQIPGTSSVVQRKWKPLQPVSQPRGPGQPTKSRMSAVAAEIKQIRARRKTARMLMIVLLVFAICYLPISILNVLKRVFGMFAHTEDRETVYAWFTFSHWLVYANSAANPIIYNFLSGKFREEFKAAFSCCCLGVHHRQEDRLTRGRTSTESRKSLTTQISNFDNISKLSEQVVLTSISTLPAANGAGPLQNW
How it was run: as §1

[3] = CHO cells expressing human orexin-1 receptor, FLIPR, 3 nM orexin-A, geometric mean if determined several times
[4] = CHO cells expressing human orexin-2 receptor, FLIPR, 3 nM orexin-A, geometric mean if determined several times

Chain of orexin-1 (O43613 whole entry): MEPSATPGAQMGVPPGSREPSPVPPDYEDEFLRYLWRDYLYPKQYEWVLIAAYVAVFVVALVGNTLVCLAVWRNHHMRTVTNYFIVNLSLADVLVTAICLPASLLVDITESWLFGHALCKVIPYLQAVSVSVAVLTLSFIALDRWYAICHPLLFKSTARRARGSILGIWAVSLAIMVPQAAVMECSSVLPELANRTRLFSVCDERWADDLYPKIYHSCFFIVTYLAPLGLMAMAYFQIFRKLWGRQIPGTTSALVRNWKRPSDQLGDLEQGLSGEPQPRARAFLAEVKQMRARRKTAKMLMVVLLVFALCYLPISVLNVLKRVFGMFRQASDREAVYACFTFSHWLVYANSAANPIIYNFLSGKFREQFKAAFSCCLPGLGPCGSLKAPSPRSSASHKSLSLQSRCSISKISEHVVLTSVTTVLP

Row | Structure (SMILES) | IC50 [1, 3] [nM] | IC50 [2, 4] [nM] | IC50 [1] [nM] | IC50 [2] [nM]
1 | COc1cc(C(=O)N2CCC[C@H]2c2noc(-c3cccc(Cl)c3C)n2)c(-n2nccn2)cc1Cl [compound 367] | 20 | 2 | – | –
2 | Cc1onc(-c2ccccc2Cl)c1C(=O)N1CCC[C@H]1c1nc(-c2cccc(Cl)c2C)no1 [Ref 7] | 529 | 593 | – | –
3 | Cc1ccc(-n2cccn2)c(C(=O)N2CCC[C@H]2c2nc(-c3cccc(Cl)c3C)no2)c1 [compound 89] | 97 | 14 | – | –
4 | C[C@@]1(c2nnc(-c3ccccc3OC(F)(F)F)[nH]2)CCCN1C(=O)c1cc(Cl)ccc1-n1nccn1 [compound 547] | 25 | 34 | – | –
5 | COc1cc(C(=O)N2CCC[C@H]2c2noc(-c3cccc(F)c3OC)n2)c(-n2nccn2)cc1Cl [compound 368] | 11 | 1 | – | –
6 | Cc1c(Cl)cccc1-c1noc([C@@H]2CCCN2C(=O)c2cccc(F)c2-c2ccn[nH]2)n1 [compound 117] | – | 5 | 211 | –
7 | COc1cc(C)cc(-c2nc([C@@H]3CCCN3C(=O)c3ccc(Cl)cc3-n3nccn3)no2)c1 [compound 418] | – | 25 | 85 | –
8 | O=C(c1ccc(Cl)cc1-n1nccn1)N1CCC[C@H]1c1nc(-c2ccccc2OC(F)(F)F)no1 [compound 172] | 56 | – | – | 18
9 | Cc1ccc(-c2ccccc2)c(C(=O)N2CCC[C@H]2c2nc(-c3cccc(Cl)c3C)no2)c1 [compound 88] | 49 | 11 | – | –
10 | CCc1ccccc1-c1nc([C@@H]2CCCN2C(=O)c2cc(Cl)ccc2-n2nccn2)no1 [compound 395] | – | – | 31 | 10
11 | O=C(c1cc(Cl)ccc1-n1nccn1)N1CCC[C@H]1c1nc(-c2ccccc2OC(F)F)no1 [compound 186] | 138 | 17 | – | –
12 | Cc1ccc(-n2nccn2)c(C(=O)N2CCC[C@H]2c2cnc(-c3cccc(Cl)c3C)[nH]2)c1 [compound 521] | 2510 | 681 | – | –
13 | Cc1c(F)cccc1-c1noc([C@@H]2CCCN2C(=O)c2cc(Cl)ccc2-n2nccn2)n1 [compound 245] | – | 21 | 262 | –
14 | Cc1c(Cl)cccc1-c1nnc([C@]2(C)CCCN2C(=O)c2cc(Cl)ccc2-n2nccn2)[nH]1 [compound 554] | 120 | – | – | 34
15 | Cc1cc(-n2nccn2)c(C(=O)N2CCC[C@H]2c2nnc(-c3ccccc3OC(F)(F)F)[nH]2)cc1Cl [compound 500] | 8 | 2 | – | –
16 | COc1c(Cl)cccc1-c1nc([C@@H]2CCCN2C(=O)c2cc(C)c(C)cc2-n2nccn2)no1 [compound 360] | 7 | 1 | – | –
17 | Cc1cc(F)cc(C(=O)N2CCC[C@H]2c2nc(-c3cccc(Cl)c3C)no2)c1-n1nccn1 [compound 132] | 831 | – | – | 250
18 | O=C(c1cccc(Cl)c1-n1nccn1)N1CCC[C@H]1c1nc(-c2ccccc2OC(F)(F)F)no1 [compound 298] | 531 | 517 | – | –

Continued, in another order:

Row | IC50 [1, 3] [nM] | IC50 [2, 4] [nM] | Structure (SMILES) | IC50 [1] [nM] | IC50 [2] [nM]
19 | 13 | 1 | COc1cc(C(=O)N2CCC[C@H]2c2noc(-c3cccc(F)c3OC)n2)c(-n2nccn2)cc1C [compound 341, {(S)-2-[5-(3-Fluoro-2-methoxy-phenyl)-[1,2,4]oxadiazol-3-yl]-pyrrolidin-1-yl}-(5-methoxy-4-methyl-2-[1,2,3]triazol-2-yl-phenyl)-methanone] | – | –
20 | 15 | 11 | Cc1ccc(-n2nccn2)c(C(=O)N2CCC[C@H]2c2nc(-c3cn(C)c4ncccc34)no2)c1 [compound 51, {(S)-2-[3-(1-Methyl-1H-pyrrolo[2,3-b]pyridin-3-yl)-[1,2,4]oxadiazol-5-yl]-pyrrolidin-1-yl}-(5-methyl-2-[1,2,3]triazol-2-yl-phenyl)-methanone] | – | –
21 | 398 | 80 | Cc1ccc(-n2nccn2)c(C(=O)N2CCC[C@H]2c2nnc(-c3cccc(F)c3C)o2)c1 [Example 453, {(S)-2-[5-(3-Fluoro-2-methyl-phenyl)-[1,3,4]oxadiazol-2-yl]-pyrrolidin-1-yl}-(5-methyl-2-[1,2,3]triazol-2-yl-phenyl)-methanone] | – | –
22 | 560 | 1780 | Cc1cccc(-c2ocnc2C(=O)N2CCC[C@@]2(C)c2nc(-c3ccccc3)no2)c1 [compound 539, [(S)-2-Methyl-2-(3-phenyl-[1,2,4]oxadiazol-5-yl)-pyrrolidin-1-yl]-(5-m-tolyl-oxazol-4-yl)-methanone] | – | –
23 | 265 | 157 | COc1cccc(-c2nc([C@@H]3CCCN3C(=O)c3ccc(C)cc3-n3nccn3)no2)c1C [compound 364, {(S)-2-[5-(3-Methoxy-2-methyl-phenyl)-[1,2,4]oxadiazol-3-yl]-pyrrolidin-1-yl}-(4-methyl-2-[1,2,3]triazol-2-yl-phenyl)-methanone] | – | –
24 | 23 | 3 | CCc1ccccc1-c1nc([C@@H]2CCCN2C(=O)c2cc(OC)c(C)cc2-n2nccn2)no1 [compound 404, {(S)-2-[5-(2-Ethyl-phenyl)-[1,2,4]oxadiazol-3-yl]-pyrrolidin-1-yl}-(5-methoxy-4-methyl-2-[1,2,3]triazol-2-yl-phenyl)-methanone] | – | –
25 | > 5040 | 536 | Cc1ccc(-n2nccn2)c(C(=O)N2CCC[C@H]2c2nc(-c3cnccc3C)no2)c1 [compound 58, {(S)-2-[3-(4-Methyl-pyridin-3-yl)-[1,2,4]oxadiazol-5-yl]-pyrrolidin-1-yl}-(5-methyl-2-[1,2,3]triazol-2-yl-phenyl)-methanone] | – | –
26 | 83 | 60 | Cc1nc(C(=O)N2CCC[C@H]2c2nnc(-c3ccccc3OC(F)(F)F)o2)c(-c2ccccc2F)s1 [compound 444, [5-(2-Fluoro-phenyl)-2-methyl-thiazol-4-yl]-{(S)-2-[5-(2-trifluoromethoxy-phenyl)-[1,3,4]oxadiazol-2-yl]-pyrrolidin-1-yl}-methanone] | – | –
27 | 57 | 6 | COc1cc(C(=O)N2CCC[C@H]2c2nnc(-c3cccc(F)c3OC)[nH]2)c(-n2nccn2)cc1C [compound 473, {(S)-2-[5-(3-Fluoro-2-methoxy-phenyl)-4H-[1,2,4]triazol-3-yl]-pyrrolidin-1-yl}-(5-methoxy-4-methyl-2-[1,2,3]triazol-2-yl-phenyl)-methanone] | – | –
28 | 352 | 99 | CCOc1ccccc1-c1noc([C@@H]2CCCN2C(=O)c2nc(C)ccc2-n2nccn2)n1 [compound 259, {(S)-2-[3-(2-Ethoxy-phenyl)-[1,2,4]oxadiazol-5-yl]-pyrrolidin-1-yl}-(6-methyl-3-[1,2,3]triazol-2-yl-pyridin-2-yl)-methanone] | – | –
29 | 307 | 32 | COc1c(F)cccc1-c1noc([C@@H]2CCCN2C(=O)c2cc(F)ccc2-n2nccn2)n1 [compound 200, {(S)-2-[3-(3-Fluoro-2-methoxy-phenyl)-[1,2,4]oxadiazol-5-yl]-pyrrolidin-1-yl}-(5-fluoro-2-[1,2,3]triazol-2-yl-phenyl)-methanone] | – | –
30 | 128 | 16 | Cc1ccc(-n2nccn2)c(C(=O)N2CCC[C@H]2c2nc(-c3ccccc3C)no2)c1 [compound 16, (5-Methyl-2-[1,2,3]triazol-2-yl-phenyl)-[(S)-2-(3-o-tolyl-[1,2,4]oxadiazol-5-yl)-pyrrolidin-1-yl]-methanone] | – | –
31 | 1740 | 536 | COc1cccc(-c2nnc([C@@H]3CCCN3C(=O)c3cc(C)ccc3-n3nccn3)o2)c1 [Example 456, {(S)-2-[5-(3-Methoxy-phenyl)-[1,3,4]oxadiazol-2-yl]-pyrrolidin-1-yl}-(5-methyl-2-[1,2,3]triazol-2-yl-phenyl)-methanone] | – | –
32 | 35 | 31 | Cc1ccc(C(=O)N2CCC[C@H]2c2cc(-c3ccccc3OC(F)(F)F)on2)c(-n2nccn2)c1 [compound 435, (4-Methyl-2-[1,2,3]triazol-2-yl-phenyl)-{(S)-2-[5-(2-trifluoromethoxy-phenyl)-isoxazol-3-yl]-pyrrolidin-1-yl}-methanone] | – | –
33 | 249 | 314 | Cc1ccc(-n2nccn2)c(C(=O)N2CCC[C@H]2c2noc(-c3cccc(C(F)(F)F)n3)n2)c1 [compound 314, (5-Methyl-2-[1,2,3]triazol-2-yl-phenyl)-{(S)-2-[5-(6-trifluoromethyl-pyridin-2-yl)-[1,2,4]oxadiazol-3-yl]-pyrrolidin-1-yl}-methanone] | – | –
34 | 33 | 28 | Cc1ccc(-n2nccn2)c(C(=O)N2CCC[C@@]2(C)c2nnc(-c3ccccc3OC(F)(F)F)[nH]2)c1 [Example 542, (5-Methyl-2-[1,2,3]triazol-2-yl-phenyl)-{(S)-2-methyl-2-[5-(2-trifluoromethoxy-phenyl)-4H-[1,2,4]triazol-3-yl]-pyrrolidin-1-yl}-methanone] | – | –
35 | 796 | 816 | Cc1cc(C)nc(-c2noc([C@@H]3CCCN3C(=O)c3cc(C)ccc3-n3nccn3)n2)c1 [compound 12, {(S)-2-[3-(4,6-Dimethyl-pyridin-2-yl)-[1,2,4]oxadiazol-5-yl]-pyrrolidin-1-yl}-(5-methyl-2-[1,2,3]triazol-2-yl-phenyl)-methanone] | – | –
36 | 132 | 116 | O=C(c1ccc(C(F)(F)F)cc1-n1nccn1)N1CCC[C@H]1c1nc(-c2ccccc2OC(F)(F)F)no1 [compound 173, (2-[1,2,3]Triazol-2-yl-4-trifluoromethyl-phenyl)-{(S)-2-[3-(2-trifluoromethoxy-phenyl)-[1,2,4]oxadiazol-5-yl]-pyrrolidin-1-yl}-methanone] | – | –
37 | 184 | 118 | Cc1ccc(-n2nccn2)c(C(=O)N2CCC[C@H]2c2nnc(-c3ccccc3OC(F)(F)F)o2)c1 [compound 442, (5-Methyl-2-[1,2,3]triazol-2-yl-phenyl)-{(S)-2-[5-(2-trifluoromethoxy-phenyl)-[1,3,4]oxadiazol-2-yl]-pyrrolidin-1-yl}-methanone] | – | –
